Legend:
Assay type in all cases: cell-based, human
[1] = system: IL-1β; experiment: Gene expression of inflammatory cytokine IL-1β in LPS-induced HCE-2 cells (Real-Time PCR); details: 500 ng/mL LPS 6 hours, then 2 hours treatment, compared with LPS group, FIG. 3A
Method: (§1) 3×10^5 (cell/ml) human corneal epithelial cells (HCE-2) were cultured in a 6-well plate and cultured overnight in an incubator for cell attachment, followed 500 ng/mL lipopolysaccharides (LPS) was added in culture medium for co-cultured with cells for 6 hours to induce cell inflammation. After 6 hours, the medium containing lipopolysaccharide (LPS) was removed, and the medium with the lutein, PVA was added to a 6-well plate. After 2 hours of treatment, the gene expressions of cellular inflammatory cytokines (IL-1β, IL-6, TNF-α) were detected by real-time polymerase chain reaction (Real-Time PCR). […]

[2] = system: TNF-α; experiment: Gene expression of inflammatory cytokine TNF-α in LPS-induced HCE-2 cells (Real-Time PCR); details: 500 ng/mL LPS 6 hours, then 2 hours treatment, compared with LPS group, FIG. 3C
Method: as §1

[3] = system: IL-6; experiment: Gene expression of inflammatory cytokine IL-6 in LPS-induced HCE-2 cells (Real-Time PCR); details: 500 ng/mL LPS 6 hours, then 2 hours treatment, compared with LPS group, FIG. 3B
Method: as §1

CC1=C[C@H](O)CC(C)(C)[C@H]1/C=C/C(C)=C/C=C/C(C)=C/C=C/C=C(C)/C=C/C=C(C)/C=C/C1=C(C)C[C@@H](O)CC1(C)C [lutein (L), lutein]
inhibit the expression: gene expression of IL-1β [1] | gene expression of TNF-α [2] | gene expression of IL-6 [3]
